Results taken from publication PMC12040169 (PLOS Biology, 2025).

Assay: in vitro
Settings: human, hela cells, % viability

Structure (SMILES)	viability at 28.5 h, 10 µM	viability at 28.5 h, 10 µM (bulk resorufin, single well)
COc1cc(-c2cncc(NC(C)CCCC(C)(C)O)n2)cc(OC)c1OC (stereo not drawn) [CBK065481]	102%	–
CC(=O)NC(Cc1c[nH]c2ccccc12)C(=O)N(C)Cc1cnn(C)c1 (stereo not drawn) [CBK305274]	84.3%	–
COc1cc(CN2CCNCC2)c2ccn(S(=O)(=O)c3ccccc3C#N)c2c1 [CBK144486T]	89.4%	–
O=C(Nc1ccc(O)cc1)c1cnc(-c2ccc(Cl)cc2)c(-c2cccnc2)c1 [CBK037516]	94.7%	–
O=[N+]([O-])c1cccnc1Oc1cccc2cccnc12 [CBK002760]	97.4%	–
C[C@@H]1CN(C(=O)OCCc2ccsc2)C[C@H](C)O1 [CBK200417]	89.3%	–
O=c1[nH]c2ncc(-c3ccncc3)nc2n1CC1CC1 [CBK064539]	90%	–
Cc1ccc(S(=O)(=O)NCCCN2CCOCC2)c(C)c1C [CBK264990]	89.7%	–
CCc1ccc2c(c1)C(CCNC(=O)c1cscc1C(F)(F)F)C(=O)N2 (stereo not drawn) [CBK304728]	82.5%	–
CC(=O)N1CCC2(CC1)OCc1cc(-c3c(C)noc3C)ccc1O2 [CBK060896]	–	94.4%
COc1cc2oc(=O)c(CC(=O)N3CCCC(C(=O)O)C3)c(C)c2cc1Cl (stereo not drawn) [CBK286754]	107%	–
Cn1cncc1C(=O)N1CCN(Cc2ccccc2)CC1 [CBK200178]	98.2%	–
COC(=O)c1ccc(-n2cccn2)c(C#Cc2cccnc2)c1 [CBK284525]	95.2%	–
CC(=O)Nc1cccc(-c2cncc(NCCc3ccccn3)n2)c1 [CBK065359]	103%	–
O=C(NC1CCCOC1)c1cnn(-c2ccc(F)cc2)c1 (stereo not drawn) [CBK283248]	89.4%	–
CC(=O)Nc1ccc(-c2cncc(N(C)CCN(C)C)n2)cc1 [CBK065694]	97.8%	–
O=C(c1ccc(OC(F)(F)F)cc1)N1CCC2(CCN(C(=O)c3ccoc3)C2)C1 (stereo not drawn) [CBK131735]	92.8%	–
O=C(O)CCC(CCC(=O)O)C(=O)O [CBK260994]	95.1%	–
O=C(O)c1ccc(CN2C[C@H](O)C[C@H]2c2nc(-c3ccc(F)cc3)no2)cc1 [CBK288870]	112%	–
Nc1cc(Cl)cc2[nH]c(=O)c3cc(Cl)ccc3c12 [CBK017144]	73.3%	–
O=[N+]([O-])c1ccc(Sc2nnc(-c3cccs3)n2CC2CCCO2)cn1 (stereo not drawn) [CBK297483]	94.6%	–
Cc1nc(C)c(C(=O)N2Cc3ccccc3C2)s1 [CBK200326]	95.9%	–

Structure (SMILES)	viability at 28.5 h, 10 µM	viability at 28.5 h, 10 µM (bulk resorufin, single well)
CCCCN1C(=O)C(O)(c2c(C)nn(CCC#N)c2N)c2ccccc21 (stereo not drawn) [CBK306211]	–	110%
Cc1ccc(NC(=O)CC(=O)NCCN2CCOCC2)cc1 [CBK262179]	92.8%	–
CCN1CCOC(CNc2nc(-c3ccncc3)nc3c2CCC3)C1 (stereo not drawn) [CBK306215]	88.4%	–
CS(=O)(=O)c1ccc(C(=O)Nc2nccs2)cc1 [CBK255213]	98.3%	–
Cc1cccc(NC(=S)NCCc2ccc(S(N)(=O)=O)cc2)c1C [CBK264889]	86.5%	–
Cc1cc(C)c2c(c1)cc(C)c1nn(CC(=O)N3CCCC3)c(=O)n12 [CBK283876]	85.5%	–
COc1ccc2nc3cc(Cl)ccc3c(NCCO)c2c1 [CBK011939]	43.8%	–
CC(NS(=O)(=O)c1ccccc1Cl)C(=O)N1CCCCC1C (stereo not drawn) [CBK305797]	93.9%	–
O=C(O)CCC(=O)N1CC[C@H]2NC(=O)N(c3ccc(F)cc3)C(=O)[C@H]21 [CBK289329]	103%	–
N#CCCn1cc(C(=O)Oc2ccc(-c3ccccc3)cc2)c(-c2cccc([N+](=O)[O-])c2)n1 [CBK267968]	105%	–
O=C(NCc1ccc(F)cc1)[C@H]1CN2CCC1C[C@@H]2Cn1cc(C2(O)CCCC2)nn1 (stereo partly drawn) [CBK289093]	109%	–
O=C(CCN1C(=O)c2ccc([N+](=O)[O-])cc2C1=O)Nc1ccccc1-c1ccccc1 [CBK265134]	103%	–
Cc1ccc(Nc2nc(N(C)C)nc3[nH]ncc23)cc1 [CBK288098]	108%	–
NC(=O)c1c(N)c(C(N)=S)n2c1CCC2 [CBK019270]	98.1%	–
O=C(CSc1nnc(C2CC2)o1)Nc1ccc(CN2CCOCC2)cc1 [CBK305015]	86%	–
O=C1C=C([C@@H]2O[C@H](CO)[C@H](O)C2O)C(=O)N1 (stereo partly drawn) [CBK201255]	101%	–
Nc1nc(CSc2nnc(-c3ccncc3)o2)nc(Nc2ccc(F)cc2)n1 [CBK266221]	116%	–
O=C(O)CCCC(=O)Nc1ccccc1-c1ccccc1 [CBK231405]	94.9%	–
COC(=O)CCN(C)CCC(=O)OC [CBK264539C]	95.4%	–
O=C(Nc1cc(Cl)ccc1Cl)C1CN(S(=O)(=O)c2ccccc2)CCN1S(=O)(=O)c1ccccc1 (stereo not drawn) [CBK267004]	88.7%	–
O=C(O)CN(CC(=O)O)c1ccccc1 [CBK261326]	90.7%	–
CS(=O)(=O)c1nc2cccnc2s1 [CBK017260]	95.2%	–

Structure (SMILES)	viability at 28.5 h, 10 µM	viability at 28.5 h, 10 µM (bulk resorufin, single well)
COc1ccc(C(=O)Nc2cc(C)c3c(=O)oc4ccccc4c3n2)cc1OC [CBK287442]	89%	–
CCOc1ccsc1C(=O)N1CCC(Cc2ccccc2)CC1 [CBK200186]	114%	–
O=C(Nn1cnnc1)c1cccc(C(=O)Nn2cnnc2)c1 [CBK091759]	99.4%	–
CCCC(=O)C1(c2ccccc2)CCNCC1 [CBK022936C]	–	89.3%
S=c1[nH]cc(-c2ccc(Br)cc2)o1 [CBK288498]	92.8%	–
O=C(CCN1CCN2CCCCC2C1)N1c2ccccc2Sc2ccc(Cl)cc21 (stereo not drawn) [CBK278257F]	86.3%	–
CC1=NN(c2ccccc2)C(=O)/C1=C(/C)NNC(=O)c1ccccn1 [CBK261837]	91.7%	–
c1coc(-c2nccnc2NCCCN2CCOCC2)c1 [CBK038086]	96.8%	–
COC(=O)c1ccccc1NC(=O)C(C)Oc1ccc(Cl)cc1C (stereo not drawn) [CBK262388]	79.2%	–
CCOc1ccc(S(=O)(=O)N2CCCN(Cc3ccc(F)cc3F)CC2)c2cccnc12 [CBK062757]	109%	–
CC(=O)c1cc2cnccc2[nH]c1=O [CBK089771]	86.5%	–
COC(=O)c1c(C)oc2cc(Br)c(OCC(=O)c3ccc(Cl)cc3)cc12 [CBK264946]	83.5%	–
O=C(CSc1ncnc2c1oc1ccccc12)Nc1ccccc1F [CBK287393]	87.3%	–
Clc1ccc(-n2ncc(-c3cccnc3)n2)cc1Cl [CBK112814]	101%	–
O=C1CC(N(O)c2ccccc2)C(=O)N1c1ccc(F)cc1 (stereo not drawn) [CBK288419]	104%	–
COc1ccccc1CC(=O)N(Cc1nc(-c2cccc(C)c2)no1)C(C)C [CBK269345]	95.7%	–
Cc1ccc(SCCN2CCNCC2)cc1 [CBK266045G]	99.6%	–
COc1cc2c(cc1OC)C(c1ccccc1)N(Cc1ccc(OCCO)cc1)CC2 (stereo not drawn) [CBK286359]	80%	–
CCN(Cc1c[nH]nc1-c1ccc(OC)cc1F)CC1CCCO1 (stereo not drawn) [CBK307350]	102%	–
C=CCN(CC=C)Cc1c(C)nc2ccc(CC)cc2c1O [CBK264998]	92.6%	–
NC(=O)C1CCN(C(=O)CSc2nc3ccccc3s2)CC1 [CBK293953]	95.2%	–
COc1ccc(OC)c(C(O)c2nc3ccccc3n2C(C)C)c1 (stereo not drawn) [CBK263474]	92.7%	–
